From patent US20100029710A1, “COMPOUNDS HAVING BOTH ANGIOTENSIN II RECEPTOR ANTAGONISM AND PPARy ACTIVATING ACTIVITIES” (Pfizer Products Inc., priority 2006, published 2010)

Key:
[1] = target: T1, Human recombinant AT1 receptor (Homo sapiens, UniProt P30556); experiment: AT1 receptor radioligand binding (flashplate); settings: 125I Sar1,Ile8-Angiotensin II radioligand
T1 construct: purchased
T1 sequence (P30556 1-359): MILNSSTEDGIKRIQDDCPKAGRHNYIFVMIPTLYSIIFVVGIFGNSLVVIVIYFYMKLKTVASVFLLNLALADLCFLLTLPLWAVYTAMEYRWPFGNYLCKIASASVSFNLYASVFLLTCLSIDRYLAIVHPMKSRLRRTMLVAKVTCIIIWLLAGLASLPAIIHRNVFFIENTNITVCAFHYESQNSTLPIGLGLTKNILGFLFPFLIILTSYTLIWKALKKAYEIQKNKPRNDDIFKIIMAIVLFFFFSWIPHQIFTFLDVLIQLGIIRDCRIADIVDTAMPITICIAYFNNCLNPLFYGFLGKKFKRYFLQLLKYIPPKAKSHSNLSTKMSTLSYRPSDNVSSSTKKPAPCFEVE
Experimental: Angiotensin II receptor antagonist activity may be determined using commercially available flashplates coated with the AT1 or AT2 receptor which provide a rapid and high throughput means to evaluate compounds compared to traditional filtration based assays (Regina M. Van Der Hee et al., Journal of Biomolecular Screening 10(2); 2005; 118-126).
AT1 receptor affinity was determined in a radioligand binding format using commercially available flashplate technology. Human recombinant AT1 receptor were coated on the wells of a 96 well flashplate and test compounds were diluted and added to wells at a final concentration range of 50 μM to 1 μM. Total binding was determined in the absence of compound and non-specific binding in the presence of 10 μM cold Angiotensin II. ^125I labeled Sar^1, Ile^8-Angiotensin II was added to all wells at Kd concentration and left for 2 hours at room temperature to equilibrate. Plates were read on a TopCount (Perkin Elmer) and concentration-response curves constructed using commercial curve fitting software. The Ki was determined via interpolation and the use of the Cheng-Prussof equation.

[2] = target: T2, human PPARγ LBD bound to Gal4 DBD (Homo sapiens, UniProt P37231); experiment: PPARγ transfection luciferase reporter assay in HepG2 cells; type: cell-based; settings: for Emax: HepG2, 24 h, compared to full agonist response (standard TZD full agonist), read-out: PPARγ % activation; for EC50: HepG2, 24 hours exposure
T2 construct: expressed in transfected cells; host or cells: HepG2
T2 sequence (P37231 238-503 limits assumed): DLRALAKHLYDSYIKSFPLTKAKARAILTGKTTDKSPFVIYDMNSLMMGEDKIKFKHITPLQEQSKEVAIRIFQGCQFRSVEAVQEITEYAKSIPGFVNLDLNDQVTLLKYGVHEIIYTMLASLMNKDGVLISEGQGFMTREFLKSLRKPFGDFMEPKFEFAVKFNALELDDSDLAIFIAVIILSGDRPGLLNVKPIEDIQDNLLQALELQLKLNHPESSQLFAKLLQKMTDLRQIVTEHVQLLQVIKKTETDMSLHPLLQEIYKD
Experimental: PPARγ agonist activity may be determined by a cell line transiently transfected with PPARγ bound to a DNA binding domain that controls luciferase expression. The degree of receptor agonism is measured by the amount of luciferase activity after compound treatment. The ratio of treated cells over vehicle control cells provides a measure of fold activation and allows an EC50 (shown in tables I and II as […] EC50) and % activation to be calculated
A human hepatocellular carcinoma cell line (HepG2) was subcultured into dishes and transiently transfected with DNA to allow expression of human PPARγ LBD bound to Gal4 DBD. Luciferase reporter gene and β-galactosidase control genes were co-transfected to enable activity to be measured. After 24 hours, cells were exposed to compounds in the concentration range of 0.1 nM-100 μM and left for a further 24 hours. Luciferase activity is determined by luminometry and PPARγ activation is expressed as a ratio of luciferase activity to β-galactosidase activity to account for transfection efficiency. Potency is described by an EC50 defined as the concentration of compound producing receptor activation equivalent to 50% of the maximum for that compound (shown in Table I as transfection EC50). The maximum fold activation is a measure of efficacy and is expressed as a percentage of a reference full agonist run in the same assay. Efficacy is described by % activation of receptor relative to a standard thiazolidinedione (TZD) full agonist.

Row | SMILES | IC50 [1] | Emax [2] | EC50 [2]
1 | CCc1nc2c(C)cc(CCc3ccc(OC)cc3)nc2n1[C@H]1CCc2cc(-c3ccccc3-c3nnn[nH]3)ccc21 [Example 27, 3-((1S)-5-(2-(1H-tetrazol-5-yl)phenyl)-2,3-dihydro-1H-inden-1-yl)-5-(4-methoxyphenethyl)-2-ethyl-7-methyl-3H-imidazo[4,5-b]pyridine] | 0.002 µM | 21% | 0.485 µM
2 | CCc1nc2c(C)cc(CC(O)CC(C)C)nc2n1[C@H]1CCc2cc(-c3ccccc3-c3nnn[nH]3)ccc21 (stereo partly drawn) [Example 18, 1-(3-((1S)-5-(2-(1H-tetrazol-5-yl)phenyl)-2,3-dihydro-1H-inden-1-yl)-2-ethyl-7-methyl-3H-imidazo[4,5-b]pyridin-5-yl)-4-methylpentan-2-ol] | 0.0054 µM | 29% | 0.085 µM
3 | CCc1nc2c(C)cc(CCc3ccccc3C)nc2n1[C@H]1CCc2cc(-c3ccccc3-c3nnn[nH]3)ccc21 [Example 28, ((1S)-5-(2-(1H-tetrazol-5-yl)phenyl)-2,3-dihydro-1H-inden-1-yl)-5-(2-methylphenethyl)-2-ethyl-7-methyl-3H-imidazo[4,5-b]pyridine] | 0.0022 µM | 15% | 0.33 µM
4 | CCCc1nc2c(C)cc(CCC(C)(O)c3ccccc3)nc2n1[C@H]1CCc2cc(-c3ccccc3-c3nnn[nH]3)ccc21 (stereo partly drawn) [Example 51, 4-(3-((1S)-5-(2-(1H-tetrazol-5-yl)phenyl)-2,3-dihydro-1H-inden-1-yl)-7-methyl-2-propyl-3H-imidazo[4,5-b]pyridin-5-yl)-2-phenylbutan-2-ol] | 0.0021 µM | 36% | 0.13 µM
5 | CCc1nc2c(C)cc(C(C)(O)C(C)C)nc2n1[C@H]1CCc2cc(-c3ccccc3-c3nnn[nH]3)ccc21 (stereo partly drawn) [Example 61, 2-(3-((1S)-5-(2-(1H-tetrazol-5-yl)phenyl)-2,3-dihydro-1H-inden-1-yl)-2-ethyl-7-methyl-3H-imidazo[4,5-b]pyridin-5-yl)-3-methylbutan-2-ol] | 0.005 µM | 21% | 0.41 µM
6 | CCc1nc2c(C)cc(CCCc3cccnc3)nc2n1[C@H]1CCc2cc(-c3ccccc3-c3nnn[nH]3)ccc21 [Example 32, 3-((1S)-5-(2-(1H-tetrazol-5-yl)phenyl)-2,3-dihydro-1H-inden-1-yl)-2-ethyl-7-methyl-5-(3-(pyridin-3-yl)propyl)-3H-imidazo[4,5-b]pyridine] | 0.0021 µM | 20% | 0.51 µM
7 | CCc1nc2c(C)cc(/C=C/COC)nc2n1[C@H]1CCc2cc(-c3ccccc3-c3nnn[nH]3)ccc21 [Example 23, 3-((1S)-5-(2-(1H-tetrazol-5-yl)phenyl)-2,3-dihydro-1H-inden-1-yl)-2-ethyl-5-((E)-3-methoxyprop-1-enyl)-7-methyl-3H-imidazo[4,5-b]pyridine] | 0.0048 µM | 26% | 0.22 µM
8 | CCc1nc2c(C)cc(CC(C)O)nc2n1[C@H]1CCc2cc(-c3ccccc3-c3nnn[nH]3)ccc21 (mixture of isomers) [Example 15, 1-(3-((1S)-5-(2-(1H-tetrazol-5-yl)phenyl)-2,3-dihydro-1H-inden-1-yl)-2-ethyl-7-methyl-3H-imidazo[4,5-b]pyridin-5-yl)propan-2-ol] | 0.0017 µM | 19% | 0.085 µM
9 | CCc1nc2c(C)cc(CCCn3cccn3)nc2n1[C@H]1CCc2cc(-c3ccccc3-c3nnn[nH]3)ccc21 [Example 33, 5-(3-(1H-pyrazol-1-yl)propyl)-3-((1S)-5-(2-(1H-tetrazol-5-yl)phenyl)-2,3-dihydro-1H-inden-1-yl)-2-ethyl-7-methyl-3H-imidazo[4,5-b]pyridine] | 0.0021 µM | 23% | 0.4 µM
10 | CCc1nc2c(C)cc(CC(O)C(C)C)nc2n1[C@H]1CCc2cc(-c3ccccc3-c3nnn[nH]3)ccc21 (stereo partly drawn) [Example 21, 1-(3-((1S)-5-(2-(1H-tetrazol-5-yl)phenyl)-2,3-dihydro-1H-inden-1-yl)-2-ethyl-7-methyl-3H-imidazo[4,5-b]pyridin-5-yl)-3-methylbutane-2-ol] | 0.0031 µM | 23% | 0.1 µM
11 | CCc1nc2c(C)cc([C@H](O)C(C)C)nc2n1[C@H]1CCc2cc(-c3ccccc3-c3nnn[nH]3)ccc21 [Example 11, (R)-1-(3-((1S)-5-(2-(1H-tetrazol-5-yl)phenyl)-2,3-dihydro-1H-inden-1-yl)-2-ethyl-7-methyl-3H-imidazo[4,5-b]pyridin-5-yl)-2-methylpropan-1-ol] | 0.016 µM | 39% | 0.44 µM

The next compounds have a lower IC50 [1] than those just listed; values first:

Row | IC50 [1] | Emax [2] | EC50 [2] | SMILES
12 | 0.0011 µM | 21% | 0.19 µM | CCc1nc2c(C)cc(CCCOC)nc2n1[C@H]1CCc2cc(-c3ccccc3-c3nnn[nH]3)ccc21 [Example 48, 3-((1S)-5-(2-(1H-tetrazol-5-yl)phenyl)-2,3-dihydro-1H-inden-1-yl)-2-ethyl-5-(3-methoxypropyl)-7-methyl-3H-imidazo[4,5-b]pyridine]
13 | 0.0013 µM | 36% | 0.29 µM | CCc1nc2c(C)cc(CCC3(O)CCCCC3)nc2n1[C@H]1CCc2cc(-c3ccccc3-c3nnn[nH]3)ccc21 [Example 52, 1-(2-(3-((1S)-5-(2-(1H-tetrazol-5-yl)phenyl)-2,3-dihydro-1H-inden-1-yl)-2-ethyl-7-methyl-3H-imidazo[4,5-b]pyridin-5-yl)ethyl)cyclohexanol]
14 | 0.001 µM | 20% | 0.84 µM | CCCc1nc2c(C)cc(CCC3(O)CCCC3)nc2n1[C@H]1CCc2cc(-c3ccccc3-c3nnn[nH]3)ccc21 [Example 43, 1-(2-(3-((1S)-5-(2-(1H-tetrazol-5-yl)phenyl)-2,3-dihydro-1H-inden-1-yl)-7-methyl-2-propyl-3H-imidazo[4,5-b]pyridin-5-yl)ethyl)cyclopentanol]
15 | 0.0013 µM | 16% | 0.06 µM | CCc1nc2c(C)cc([C@@H](O)c3ccccc3)nc2n1[C@H]1CCc2cc(-c3ccccc3-c3nnn[nH]3)ccc21 (single isomer, unassigned) [Example 8a]
16 | 0.0009 µM | 21% | 0.965 µM | CCCc1nc2c(C)cc(CC[C@H](C)O)nc2n1[C@H]1CCc2cc(-c3ccccc3-c3nnn[nH]3)ccc21 [Example 41, (S)-4-(3-((1S)-5-(2-(1H-tetrazol-5-yl)phenyl)-2,3-dihydro-1H-inden-1-yl)-7-methyl-2-propyl-3H-imidazo[4,5-b]pyridin-5-yl)butan-2-ol]
17 | 0.0014 µM | 30% | 0.215 µM | CCc1nc2c(C)cc(CCC(C)(C)O)nc2n1[C@H]1CCc2cc(-c3ccccc3-c3nnn[nH]3)ccc21 [Example 53, 4-(3-((1S)-5-(2-(1H-tetrazol-5-yl)phenyl)-2,3-dihydro-1H-inden-1-yl)-2-ethyl-7-methyl-3H-imidazo[4,5-b]pyridin-5-yl)-2-methylbutan-2-ol]
18 | 0.0005 µM | 24% | 0.27 µM | CCc1nc2c(C)cc(CC[C@@H](C)O)nc2n1[C@H]1CCc2cc(-c3ccccc3-c3nnn[nH]3)ccc21 (single isomer, unassigned) [Example 37]
19 | 0.0014 µM | 50% | 0.07 µM | CCc1nnc(Cc2cc(C)c3nc(CC)n([C@H]4CCc5cc(-c6ccccc6-c6nnn[nH]6)ccc54)c3n2)o1 [Example 62, 3-((1S)-5-(2-(1H-tetrazol-5-yl)phenyl)-2,3-dihydro-1H-inden-1-yl)-2-ethyl-5-((5-ethyl-1,3,4-oxadiazol-2-yl)methyl)-7-methyl-3H-imidazo[4,5-b]pyridine]
